Data reported in US20080071190A1, “Timing of Ovulation Based on Vaginal Ph” (priority 2004, published 2008).
Marks after values point to notes of the source that are not given here.

Legend:
[1] = test system: hECE cells (Human Ectocervical-Vaginal Epithelial Cells); assay: Determinations of extracellular pH (pHo) in luminal and contra-luminal solutions of hECE cells cultured on filters; type: cell-based; conditions: for effect on luminal pHo (specificity of estrogen effect): hormone at 10 nM, FIG. 8A; for effect on estrogen-induced acidification of the luminal pHo: 10 nM 17β-estradiol, 30 min pre-treatment, bafilomycin A1 1 μM, ouabain 1 μM (contra-luminal), omeprazol 100 μM, FIG. 10; for effect of co-treatment on estrogen-induced decrease in luminal pHo: hECE cells in steroid-free medium + 10 nM 17β-estradiol; for effect of co-treatment on estrogen-induced decrease in luminal pHo / effect on contra-luminal pHo: tamoxifen 10 μM; for effect of co-treatment on estrogen-induced decrease in luminal pHo / effect on contra-luminal pHo / effect on luminal pHo, alone: ICI-182780 10 μM; for effect of co-treatment on estrogen-induced decrease in luminal pHo / effect on luminal pHo, alone: progesterone 1 μM; for effect on contra-luminal pHo: progesterone 1 μM (not shown); for effect on luminal pHo, alone: without 17β-estradiol
Experimental: Referring to FIG. 4A, hECE cells or Human Endocervical Cells were plated on Anocell filters (Anocel™-10, Oxon, UK, obtained through Sigma Chemicals, St. Louis, Mo.), which are ceramic-base filters, pore size of 0.02 μm width, 50 μm depth, and surface area of 0.6 cm^2. Filters 300 and 302 were coated with 4 μg/cm^2 collagen type IV and incubated at 37° C. overnight. The remaining collagen solution was aspirated and the filter was dried at 37° C. Before plating, filters 300 were rinsed 3 times with Hanks' Balanced Salt Solution. Cells were plated either on the upper surface 302 of one filter 300 (for determinations of luminal pHo) or on the bottom surface 304 of the other filter 300 (for determinations of the contra-luminal pHo) at 3·10^5 cells/cm^2. By plating at this relatively high density the cultures became confluent within 12 hours after plating.
Plates containing the filters were placed in a tissue culture incubator (37° C.), and pHo changes in the luminal and contra-luminal solutions were determined using AMANI-1000 microcombination pH electrodes 306 (Harvard Apparatus, Holliston, Mass., obtained through Genomics Solutions, Ann Harbor, Mich.). The AMANI-1000 pH sensor (stored in pH 7.0) is based on metal-metal oxide pH measurements and the pH sensitive layer is immobilized on plastic. The reference electrode employs an Ag/AgCl in 3.4 M KCl reference electrode, and the reference electrode junction is leak-free ensuring no leaks of KCl out of the reference electrode. The design of the pH electrodes 306 enabled their use for the purpose of the present experiments: tip diameter of 1 mm, depth of immersion 1 mm, and response time of less than 5 sec.
Electrodes 306 attached to a stand were held stable with the tip immersed in the solution within the upper compartment of the filter to a depth of about 2 mm avoiding direct contact between the electrode tip and the cultured cells. The electrodes were connected directly to a pH meter 310 (e.g., Accumet pH meter 910) (Fisher Scientific, Suwanee Ga.). After stabilization, the luminal and contraluminal solutions were gently aspirated using glass pipette, and replaced with fresh warmed (37° C.) Basic Salt Solution containing (in mM) NaCl (140), KCl (5), MgCl2 (1), CaCl2 (1), glucose (10), and 0.1% bovine serum albumin, pH 7.4. The volumes in the luminal and contraluminal compartments were 150 μl and 500 μl, respectively. Determinations of changes in pHo were made at time 0, and at 5 min intervals thereafter for up to 30 min.
To remove intracellular estrogens cells were grown in steroid-free medium as described. This procedure involved shifting cells on filters for three days prior to pHo assays to a medium composed of phenol-red-deficient (DMEM)/Ham's F12 or (Sigma Chemicals, St. Louis, Mo.) containing 8% heat inactivated fetal bovine serum that was previously treated with charcoal to remove steroids. Preparation of charcoal-treated serum was described; briefly, dextran-coated charcoal (Sigma Chemicals, St. Louis, Mo.) was dissolved at 8% in 0.15 M NaCl, autoclaved, mixed by stirring, spun and the pellet was resuspended as 1 gm/1.25 ml in H2O. Fetal bovine serum (Hyclone, Logan, Utah) was mixed with the activated charcoal-dextran at 20:1 (Vol:Vol) and incubated for 45 min at 55° C. At the completion of incubation the mixture was spun twice at 800 g for 20 min and the supernatant (serum) was decanted and collected. For experiments, cells were shifted to steroid-free medium for 3 days; alternatively, cells were shifted to the steroid-free medium for 24 hrs and treated with 17β-estradiol for two additional days.

hECE cells = assay: Cell-vitality staining (MTT assay); type: cell-based, human; conditions: for hECE cell vitality (MTT staining normalized to OD570 of control unperturbed cells), Baseline / hECE cell vitality (MTT staining normalized to OD570 of control unperturbed cells), 30 min pHo: means ±SD; for hECE cell vitality (MTT staining normalized to OD570 of control unperturbed cells), 30 min pHo: after 30 min pHo measurement
Experimental: Cell-vitality staining was done using the 3-[4,5-dimethylthiazol-2-yl]-2,5-diphenyl tetrazolium bromide (MTT) assay. MTT serves as a substrate for mitochondrial dehydrogenases, and only viable functional mitochondria are capable of cleaving MTT to generate the colored product formazan. MTT solution was prepared by dissolving MTT at a concentration of 5 mg/ml in phosphate-buffered saline (PBS) composed of (mM) NaCl (137), KCl (2.68), Na2HPO4 (10), KH2PO4 (1.76), pH 7.4, and filtering the solution through Millipore filter. Following treatments/assays, cells on filters were washed with fresh and warm (37° C.) PBS and incubated for 60 min at 37° C. in MTT solution. At the completion of incubation, cells were washed with PBS, and solubilized in isopropanol containing 0.1 M HCl plus 1% Triton X-100. Lysates were mixed by pipetting to dissolve the reduced MTT crystals (during which time the colorless solution turned purple) and were spinned at 10,000 g for 5 min. The solubilized formazan was measured by determining absorption at 570 nm. Background absorbance at 690 nm was subtracted for each sample, and values were normalized to OD570 (optic density) of control unperturbed cells.

[2] = hECE cells in steroid-free medium
[3] = Steroid-Free Medium + 10 nM 17β-Estradiol + substance at the concentration given
[4] = Steroid-Free Medium + substance, 3 to 4 repeats
[5] = hECE cells, steroid-free medium + estradiol, 1 μM for 30 min added to the luminal solution

Row | Structure (SMILES) | effect on estrogen-induced acidification of the luminal pHo ([1]; hECE cells) | hECE cell vitality (MTT staining normalized to OD570 of control unperturbed cells), Baseline (hECE cells; [3]) | hECE cell vitality (MTT staining normalized to OD570 of control unperturbed cells), 30 min pHo (hECE cells; [3]) | hECE cell vitality (MTT staining normalized to OD570 of control unperturbed cells), Baseline (hECE cells; [4]) | hECE cell vitality (MTT staining normalized to OD570 of control unperturbed cells), 30 min pHo (hECE cells; [4]) | effect of co-treatment on estrogen-induced decrease in luminal pHo [1] | effect on contra-luminal pHo ([1]; hECE cells) | also measured
1 | CC/C(=C(/CC)c1ccc(O)cc1)c1ccc(O)cc1 [diethylstilbestrol] | – | – | – | – | – | – | – | effect on luminal pHo (specificity of estrogen effect) [1, 2]: could mimic 17β-estradiol decrease in luminal pHo
2 | C[C@@H]1O[C@@H](O[C@H]2C[C@@H](O)[C@]3(CO)[C@H]4[C@H](O)C[C@]5(C)[C@@H](C6=CC(=O)OC6)CC[C@]5(O)[C@@H]4CC[C@]3(O)C2)[C@H](O)[C@H](O)[C@H]1O [ouabain] | attenuated mildly estradiol effect | 62 ± 4^a,b % | 74 ± 9^b % | 71 ± 8^a,b % | 69 ± 9^b % | – | – | effect on luminal pHo in cells grown in steroid-free medium ([1]; hECE cells, no estradiol, ouabain 1 μM, 30 min, added to contra-luminal solution): mild alkalinization of luminal pHo; effect on MTT cleavage (cell viability) (hECE cells; hECE cells, treatments of Table 1): decreased MTT incorporation and staining
3 | CC/C(=C(\c1ccccc1)c1ccc(OCCN(C)C)cc1)c1ccccc1 [tamoxifen] | – | 95 ± 3% | 96 ± 4% | 93 ± 4% | 95 ± 4% | no significant effect | Neither tamoxifen ICI-182780 or progesterone had any appreciable effect | luminal pHo ([1]; hECE cells in steroid-free medium, tamoxifen 10 μM alone, 24 hrs, decreased from 7.24±0.02, p<0.01): 7.15±0.02
4 | CC(=O)[C@H]1CC[C@H]2[C@@H]3CCC4=CC(=O)CC[C@]4(C)[C@H]3CC[C@]12C [progesterone] | – | 91 ± 6% | 95 ± 4% | 95 ± 5% | 95 ± 4% | no significant effect | Neither tamoxifen ICI-182780 or progesterone had any appreciable effect | effect on luminal pHo, alone [1, 2]: no effect
5 | [Cl][Cd][Cl] [CdCl2] | – | 95 ± 2% | 95 ± 3% | 94 ± 2% | 95 ± 9% | – | – | –
6 | C[C@]12CC[C@H]3[C@@H](CCC4=CC(=O)CC[C@@]43C)[C@@H]1CC[C@@H]2O [testosterone] | – | – | – | – | – | – | – | effect on luminal pHo (specificity of estrogen effect) [1, 2]: no effect
7 | COc1ccc2[nH]c([S+]([O-])Cc3ncc(C)c(OC)c3C)nc2c1 (centres unmarked) [omeprazol] | no effect | 91 ± 6% | 95 ± 4% | 92 ± 5% | 95 ± 4% | – | – | –
8 | CO/C1=C\C(C)=C\[C@@H](C)[C@@H](O)[C@@H](C)C/C(C)=C/C=C/[C@H](OC)[C@@H]([C@@H](C)[C@@H](O)[C@H](C)[C@@]2(O)C[C@@H](O)[C@H](C)[C@@H](C(C)C)O2)OC1=O [bafilomycin A1] | blocked | 93 ± 7% | 92 ± 5% | 94 ± 3% | 95 ± 4% | – | – | effect on the contra-luminal or luminal pHo ([1]; hECE cells, steroid-free medium + estradiol, 1 μM for 30 min added to the contra-luminal solution): no effect; effect on luminal pHo [1, 5]: significantly blocked the estrogen-decrease in luminal pHo; effect on the contra-luminal pHo [1, 5]: little effect
9 | C[C@]12CC[C@@H]3c4ccc(O)cc4C[C@@H](CCCCCCCCC[S+]([O-])CCCC(F)(F)C(F)(F)F)[C@H]3[C@@H]1CC[C@@H]2O (some centres unmarked) [ICI-182780] | – | 89 ± 9% | 93 ± 6% | 95 ± 8% | 95 ± 3% | blocked | Neither tamoxifen ICI-182780 or progesterone had any appreciable effect | effect on luminal pHo, alone [1, 2]: no effect
10 | O=C(O)CN(CCOCCOCCN(CC(=O)O)CC(=O)O)CC(=O)O [EGTA] | – | – | – | – | – | – | – | effect on contra-luminal solution ([1]; hECE cells, 1.2 mM EGTA plus 1.2 mM CdCl2 in luminal and contra-luminal solutions): acidification of the contra-luminal solution; effect on luminal acidification ([1]; hECE cells, 1.2 mM EGTA plus 1.2 mM CdCl2 in luminal and contra-luminal solutions (extracellular calcium <0.1 mM)): blocked the luminal acidification; luminal pHo and contra-luminal pHo ([1]; hECE cells, following treatment with 1.2 mM EGTA (plus 1.2 mM CdCl2)): ~7.2
